Among the data in a melting point compilation (Tetko et al.; mined from patent text by program, amines drawn as free bases though some values may be those of a salt) are melting point values, retold here.

Residues, ends and D or L forms follow the SMILES beside them. *: point of attachment. Bz = O=C(c1ccccc1)*

For orientation: melting point means the temperature of the solid-liquid transition. `CCCCCCCCc1cc2c(cc1/C=C/c1ccc(C(=O)O)cc1)CCC(C)(C)CC2` registered a melting point of 180 °C. For `COP(=S)(OC)Oc1nsc(SC)n1` the value was 45 °C; for `COc1cc(OC)nc(-c2c(N)n(S(=O)(=O)C(F)F)c3ccccc23)n1`, 156 to 158 °C.

The compound `CCCCCC(O)C1C(=O)NC2(C(O)C3C=CCCC3)C(=O)OC12C` (stereo not drawn) yielded a melting point of 144 °C. For `Cc1c(NC(=O)c2ccc(-c3ccc(F)cc3)cc2)ccc2cc(CN3CCC(CCCC(=O)N4CCCCC4)CC3)cnc12` the value was 154 to 156 °C; for `CCOC(=O)C(=CNc1cc(C)no1)C(=O)OCC`, 134 to 136 °C; for `COC(=O)c1cc(-n2cnnc2)c(C(F)(F)F)cc1N`, 184 to 186 °C.

As to `COc1ccc(-c2ocnc2-c2cc(OC)c(O)c(OC)c2)cc1N`, the melting point was in the range of 101 to 102 °C. The compound `CCCCc1nc(Cl)c(CC(=O)O)c(Cc2ccc(-c3ccccc3C(=O)O)cc2)n1` had a melting point of 100 to 110 °C. For `Cc1cc(-c2ccccc2)n2nc(S(C)(=O)=O)nc2n1` the value was 158 to 159 °C; for `O=C(Oc1ccccc1N1c2ccccc2S(=O)(=O)c2ccccc21)c1ccccc1`, 228 to 232 °C. The compound `CCOC(=O)CCCC(=O)c1ccc(Br)s1` yielded a melting point of 53 to 54 °C.

In the case of `Cc1nc2cc(-c3ccc(C=C4SC(=O)NC4=O)cc3)cc(C34CC5CC(CC(C5)C3)C4)c2o1`, the melting point was in the range of 354 to 360 °C. The value for `O=C(Nc1ccc2[nH]ccc2c1)c1ccco1` was 181 to 182 °C; that for `CCOC(=S)SCc1cc(OC)nc(N)n1` was 91 to 93 °C; that for `CC(C)(C)C(F)(F)c1ccc(C[C@H]2NC(=O)O[C@H]2c2cccc(Cl)c2)cc1` (racemic) was 188 to 190 °C. Regarding `Cc1cc2c(cc1C(F)(F)F)NC(=O)CC(c1cccc(-c3ncoc3C)c1)=N2`, the melting point is 241 to 242 °C. Compound `O=C(O)/C=C/c1nncn1-c1ccc(F)cc1` displayed a melting point of 226 to 229 °C. For `Cc1nc(-c2cccc(-n3cnc4cc(-c5ccoc5)ccc43)c2)cs1` the value was 136 to 138 °C; for `CCCCN(C)C(=O)CCCCCCCCCCSC1Cc2cc(O)ccc2C2CCC3(C)C(O)CCC3C12` (stereo not drawn), 71 to 75 °C; for `COc1ccc2c(c1)C(c1ccc(N)cc1)=NN=C(C)C2`, 136 to 138 °C.

`CC(C)c1cccc(C(C)C)c1NC(=O)C1c2ccccc2COc2ccc(C(=O)O)cc21` (stereo not drawn) displayed a melting point of 289 to 290 °C. For `COC(=O)C1(C(=O)Nc2ccc(Br)cc2C)CC1`, the melting point lay in the range of 106 to 108 °C. The value for `CCCCc1nn(-c2cc([N+](=O)[O-])ccc2Cl)c(=O)n1Cc1ccc(-c2ccccc2S(=O)(=O)NC(C)(C)C)cc1` was more than 75 °C; that for `CCCCOc1ccc(Nc2cc(Nc3ccc4c(c3)OCCO4)c(F)cn2)cc1` was 133 to 135 °C; that for `CC1(C)CC(=O)OC(NCCCCN2CCN(c3ncccn3)CC2)N1` (stereo not drawn) was 124 to 126 °C.

As for `CCCCCCCCCCCCCCOc1ccc(CN(C(=O)NC)c2cccc(CBr)c2)cc1`, the melting point fell in the range of 70 to 73 °C. Consider `Cc1cc(N2CCN(c3ccc(C(F)(F)F)cn3)CC2)cc(C)c1O`, for which the melting point fell in the range of 143 to 144 °C.

In the case of `CN(C)C(c1ccccc1)(c1cccc(Oc2ccccc2)c1)C1CCCCC1(O)Cc1ccccc1` (stereo not drawn), the melting point lay within 189 to 190 °C. In turn, `CCc1ccc(N(C(=O)CCl)c2c(F)c(F)cc(F)c2F)cc1` registered a melting point of 72 °C. As for `COc1ccc(-c2nc(CC(=O)Cc3ccc(OC(C)=O)c(OC(C)=O)c3)cs2)cc1OC`, the melting point amounted to 128 °C. For `O=C(c1ccccc1)N1CCNc2ncccc21` the value was 166 to 168 °C; for `O=C(CS(=O)(=O)C(c1ccc(Cl)cc1)c1ccc(Cl)cc1)C(F)(F)F`, 60 to 62 °C. `C=Cc1c[nH]c(=O)nc1N` registered a melting point of more than 290 °C. The value for `Fc1ccc(-c2ncc(Br)cn2)cc1F` was 148 °C.

The compound `Nc1sc2c(c1C(=O)c1ccc3ccccc3c1)CCC(Cc1ccc([N+](=O)[O-])cc1)C2` (stereo not drawn) registered a melting point of 76 to 78 °C.

`O=CC1=C(Br)CC(F)(Br)C=C1` (stereo not drawn) registered a melting point of 57 to 58 °C.

As for `COc1c(O)ccc2cc(-c3ccc(O)cc3)ccc12`, the melting point was 204 to 206 °C. For `O=Cc1ccc2c(c1)NC(=O)CO2` the value was 220 to 222 °C; for `CCCCCNc1cc(C(=O)OCCCCC)cc(S(N)(=O)=O)c1Oc1ccccc1`, 138 to 139 °C; for `OCCCCCCC1CCC2C(C=CC3=CCCc4c3n2c2ccncc42)C1` (stereo not drawn), 101 to 102 °C. `CC(C)OCC(=O)NC1CCN(CC23CC(c4ccccc42)c2ccc(Cl)cc23)CC1` (stereo not drawn) returned a melting point of 50 to 53 °C. For `CCC(=O)C(=Cc1cccc(C#N)c1)C(=O)CC` the value was 51 to 52 °C; for `CCOC(=O)c1c(CCN(CC)CC)nc2cc(OC)c(OC)cc2c1-c1ccc(OC)c(OC)c1`, 76 to 78 °C; for `CC(CSC#N)C(=O)O` (stereo not drawn), 24 to 25 °C. In the case of `Nc1nc(Cl)c(NC=O)c(N[C@H]2C=C[C@@H](CO)C2)n1`, the melting point was in the range of 174 to 176 °C. The value for `CCOC(=O)C(C)(C)Oc1ccc(C(=O)Cc2ccccc2)cc1` was 110 to 113 °C; that for `CC(C)c1ccc2nc(Cl)cn2n1` was 69 to 71 °C; that for `COc1ccc(CC2SC(=O)NC2=O)cc1C(=O)NCc1ccc([N+](=O)[O-])cc1` (stereo not drawn) was 236 to 238 °C. The value for `O=C1c2cccc(-c3ccc(C(F)(F)F)cc3)c2CC1Br` (stereo not drawn) was 94 to 97 °C. The value for `COc1ccc(-c2[nH]c(-c3ccc(F)cc3)cc2C(=O)N2CCOCC2)cc1OC` was 190 °C; that for `COc1ccc(C(=O)NCCc2ccccc2C)cc1` was 81.8 to 82.1 °C. In turn, `CC(C)Oc1ccccc1N1CCN(Cc2cccc(CC3NC(=O)NC3=O)c2)CC1` (stereo not drawn) came in with a melting point of 178 to 181 °C. The value for `Cc1cccc(Nc2ccc(Nc3ncnc4cc(-c5ccccc5)sc34)cc2)c1` was 170 to 171 °C; that for `CCCCOc1c(CNC(=O)OC(C)(C)C)n(CC2CC2)c(=O)c2ccc(OCc3ccccc3)cc12` was 106 to 107 °C. Turning to `Cc1ccc(S(=O)(=O)C2=C(C(=O)OCC(C)C)C(=O)C=C(C(=O)OCC(C)C)C2=O)cc1`, the melting point was in the range of 112 to 114 °C. For `O=C(Nc1cc(-c2cccc(-c3ccccc3)c2)[nH]n1)C1Cc2ccccc2C1` the value was 108 to 110 °C. For `CC(=O)c1ccc(S(=O)(=O)Nc2nccs2)cc1` the value was 194 to 195 °C.

With `C[C@@H]1NCC[C@@H]1C(C)(C)O`, the melting point lay within 120 to 122 °C. For `COc1cccc2nc3[nH]c(=O)[nH]c3cc12` the value was more than 300 °C; for `COC(=O)C(Cc1ccc(O)cc1)NC(=O)C(Cc1ccccc1)NC(=O)c1ccccc1` (stereo not drawn) (Bz-Phe-Tyr-OMe; configuration not given here), 188 to 190 °C. For `O=C1N(Cc2ccccc2)Cc2cnc(Nc3ccc(N4CCCCC4)cn3)nc2N1C1CCCC1` the value was 194 to 196 °C; for `COC(=O)COc1cc2ccccc2c2c1c(C(=O)C(N)=O)c(C)n2CC1CCCCC1`, 156 to 158 °C; for `C/C(=C\c1ccc(OCCN(C)C)cc1)c1ccc2c(c1)C(C)(C)CCS2`, 81 to 82 °C. As for `CCn1cc(Cl)nc(S)c1=O`, the melting point lay within 142 to 144 °C. For `CCCc1nc2c(N)nc3cc(OCc4cccc(C)c4)ccc3c2n1CC(C)C` the value was 200 to 203 °C; for `COc1ccc(C=O)c(Br)c1`, 73 to 74 °C. For the compound `CCOC(=O)C1CN2c3c(c(F)c(F)c(F)c3C1=O)CCN2C` (stereo not drawn), the melting point lay within 236 to 240 °C. For `CN1C2CCCC1CC(NC(=O)c1cccc3nc(-c4ccccc4)oc13)C2` (stereo not drawn) the value was 208 to 210 °C.

For `COC(=O)c1cscc1OC(C)=O`, the melting point is 56 to 58 °C. The value for `CCOC(=O)CC[C@H](NC(=O)c1ccc2c(c1)CCN2Cc1cnc2nc(N)nc(N)c2n1)C(=O)OCC` was 168 to 170 °C; that for `CN1CCN(C2=Cc3cc(Cl)ccc3C(=CC#N)c3ccccc32)CC1` was 196 to 198 °C. `Cc1cncc(C)c1-c1c(C)cc(N=C(c2ccccc2)c2ccccc2)cc1C` came in with a melting point of 44 to 45 °C. Turning to `Cc1cc(Cn2cnc(Cl)c2CC#N)ccc1OCc1ccccc1`, the melting point is 102 to 105 °C.

In turn, `CC(C)(C)OC(=O)NC(COc1noc2ccc(Cl)cc12)Cc1cc(O)no1` (stereo not drawn) yielded a melting point of 159 to 161 °C. For `CCOC(C)OC1CCC2(C)C3=C(CCC2C1(C)C)C1=CCC(C(C)OCc2ccccc2)C1(C)CC3` (stereo not drawn) the value was 138 to 143 °C; for `CC(=O)C(=Cc1ccc(S(=O)(=O)c2ccccc2)cc1)C(C)=O`, 102 to 105 °C. The value for `CS(=O)(=O)c1ccc(C2=C(Br)C(=O)C3(CCCC3)O2)cc1` was 127 to 128 °C; that for `CC(=O)C=CC=Cc1ccc(OCc2ccccc2)cc1` was 132 to 133 °C; that for `Cc1ccc(S(=O)(=O)N(Cc2cc(C(C)(C)C)c(O)c(C(C)(C)C)c2)c2cccnc2Cl)cc1` was 117 to 119 °C.

The compound `CC(C)(C)OC(=O)N[C@@H]1C(=O)N(OCc2ccccc2)C1(C)C` displayed a melting point of 121 to 122 °C. For `c1cc(-c2ccc(N3CCCN(c4ccc(-c5ccsc5)cn4)CC3)nc2)cs1` the value was 234 to 236 °C; for `COC(=O)c1ccc(CCNCC(O)c2ccccc2)cc1` (stereo not drawn), 105 to 106 °C. The value for `OC(CCCC(O)c1ccccc1)c1ccccc1` (stereo not drawn) was 64 to 67 °C; that for `COc1ccc(Nc2ccnc(Nc3cc(OC)c(OC)c(OC)c3)n2)cc1` was 210 °C. For `CCCC1=C([N+](=O)[O-])C(c2ccccc2Br)c2c[nH]nc2N1` (stereo not drawn) the value was 226 °C. `CCS(=O)(=O)c1cc(C(=O)NCC2CCCN2C)c(OC)cc1N` (stereo not drawn) had a melting point of 126 to 127 °C. The value for `C#CCOCc1nnc(Cl)c2ccccc12` was 131 to 132 °C.
